The test system of this assay is T1, Neutral α-glucosidase (NAG).
T1 construct: gene MGAM; native, unpurified enzyme in human seminal plasma
Put plainly: spectrophotometric PNP release at […] nm, Michaelis-Menten. The settings on record: seminal plasma, not purified; average of semen samples (n = 13 in methods); adapted proprietary buffer with SDS, pH 6.8, 37 °C. It counts as biochemical, Homo sapiens.

Structures are written as SMILES.

In the case of `O=[N+]([O-])c1ccc(O[C@H]2O[C@H](CO)[C@@H](O)[C@H](O)[C@H]2O)cc1` [para-nitrophenyl-α-D-glucopyranoside], the Km was found to be 4.6 ± 0.63 mM.
